Measurements from patent US9765075B2, “Substituted bridged urea analogs as sirtuin modulators” (GLAXOSMITHKLINE LLC, priority 2013, dated 2017).
Where two headings read alike, the source gives them in different places.

Target: T1, SIRT1 (Homo sapiens, UniProt Q96EB6)
T1 sequence (Q96EB6 1-747): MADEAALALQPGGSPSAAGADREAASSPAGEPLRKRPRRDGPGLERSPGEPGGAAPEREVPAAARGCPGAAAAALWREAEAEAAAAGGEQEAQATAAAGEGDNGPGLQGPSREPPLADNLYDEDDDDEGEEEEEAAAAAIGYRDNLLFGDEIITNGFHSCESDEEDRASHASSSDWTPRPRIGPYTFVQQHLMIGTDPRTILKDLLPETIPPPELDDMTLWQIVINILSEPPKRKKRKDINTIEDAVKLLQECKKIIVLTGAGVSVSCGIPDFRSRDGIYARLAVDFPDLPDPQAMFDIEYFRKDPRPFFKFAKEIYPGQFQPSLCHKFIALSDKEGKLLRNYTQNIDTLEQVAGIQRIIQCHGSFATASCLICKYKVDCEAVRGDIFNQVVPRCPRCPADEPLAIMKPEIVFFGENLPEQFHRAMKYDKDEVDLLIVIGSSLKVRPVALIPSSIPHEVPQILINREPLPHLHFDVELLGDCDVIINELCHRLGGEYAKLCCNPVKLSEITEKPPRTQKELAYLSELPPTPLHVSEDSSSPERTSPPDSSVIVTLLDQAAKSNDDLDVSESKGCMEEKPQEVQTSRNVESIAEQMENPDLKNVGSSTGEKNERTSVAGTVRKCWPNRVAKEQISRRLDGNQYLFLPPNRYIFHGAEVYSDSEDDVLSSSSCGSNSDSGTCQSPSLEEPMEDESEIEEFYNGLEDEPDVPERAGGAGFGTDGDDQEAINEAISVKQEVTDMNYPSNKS
Test: Trp mass spectrometry assay (SIRT1 activation)
Type: biochemical
Conditions: for Emax: percent maximum fold activation of SIRT1, read-out: Tryp % Fold Act
Source text: Mass spectrometry based assays were used to identify modulators of SIRT1 activity. […] The peptide was labeled with the fluorophore 5TMR (excitation 540 nm/emission 580 nm) at the C-terminus. The sequence of the peptide substrate was based on p53 with several modifications. In addition, the methionine residue naturally present in the sequence was replaced with the norleucine because the methionine may be susceptible to oxidation during synthesis and purification. The Trp based assay utilized a peptide having an amino acid residues as follows: Ac-R-H-K-K(Ac)-W-NH2 (SEQ ID NO: 2).
The Trp mass spectrometry assay was conducted as follows. 0.5 μM peptide substrate and 120 μM βNAD^+ were incubated with 10 nM SIRT1 for 25 minutes at 25° C. in a reaction buffer (50 mM HEPES pH 7.5, […] NaCl, 1 mM DTT, 0.05% BSA). The SIRT1 protein was obtained by cloning the SirT1 gene into a T7-promoter containing vector, which was then expressed in BL21(DE3) bacterial cells and purified as described in further detail below. Test compound was added at varying concentrations to this reaction mixture and the resulting reactions were monitored. After the 25 minute incubation with SIRT1, 10 μL of 10% formic acid was added to stop the reaction. The resulting reactions were sealed and frozen for later mass spec analysis. The relative SIRT1 activity was then determined by measuring the amount of 0-acetyl-ADP-ribose (OAADPR) formed (or, alternatively, the amount of deacetylated Trp peptide generated) by the NAD-dependent sirtuin deacetylation reaction in the presence of varying concentrations of the test compound versus control reactions lacking the test compound. The degree to which the test agent activated deacetylation by SIRT1 was expressed as EC1.5 (i.e., the concentration of compound required to increase SIRT1 activity by 50% over the control lacking test compound), and Percent Maximum Activation (i.e., the maximum activity relative to control (100%) obtained for the test compound).
A control for activation of sirtuin activity was conducted using 10 nM of sirtuin protein, with 1 μL of DMSO in place of compound, to determine the amount of deacetylation of the substrate at a given time point within the linear range of the assay. This time point was the same as that used for test compounds and, within the linear range, the endpoint represents a change in velocity.
For the above assay, SIRT1 protein was expressed and purified as follows. The SirT1 gene was cloned into a T7-promoter containing vector and transformed into BL21(DE3). The protein was expressed by induction with 1 mM IPTG as an N-terminal His-tag fusion protein at 18° C. overnight and harvested at 30,000×g. Cells were lysed with lysozyme in lysis buffer (50 mM Tris-HCl, 2 mM Tris[2-carboxyethyl] phosphine (TCEP), 10 μM ZnCl2, 200 mM NaCl) and further treated with sonication for 10 min for complete lysis. The protein was purified over a Ni-NTA column (Amersham) and fractions containing pure protein were pooled, concentrated and run over a sizing column (Sephadex S200 26/60 global). The peak containing soluble protein was collected and run on an Ion-exchange column (MonoQ). Gradient elution (200 mM-500 mM NaCl) yielded pure protein. This protein was concentrated and dialyzed against dialysis buffer (20 mM Iris-HCl, 2 mM TCEP) overnight. The protein was aliquoted and frozen at −80° C. until further use.

[1] = Trp mass spectrometry assay, EC1.5 = concentration of test compound that results in 150% activation of SIRT1
[2] = concentration of test compound that results in 150% activation of SIRT1, Trp peptide substrate
[3] = Trp mass spectrometry assay, EC1.5 = concentration giving 150% activation of SIRT1

Cc1nc(NC(=O)N2c3nc(-c4cccc(C(F)(F)F)c4)ccc3N3CC[C@@H]2C3)sc1C [Example 201]
Tryp AVG EC1.5 (μM) [1]: B (EC1.5 1-25 μM) | Emax (Trp mass spectrometry assay): ≥ 150%

O=C(Nc1ccncc1Cl)N1c2nc(-c3cccc(C(F)(F)F)c3)ccc2N2CC[C@H]1C2 [Example 96]
Tryp AVG EC1.5 (μM) [1]: B (EC1.5 1-25 μM) | Emax (Trp mass spectrometry assay): ≥ 150%

O=C(Nc1ccnc(O[C@H]2CCOC2)n1)N1c2nc(-c3cccc(C(F)(F)F)c3)ccc2N2CC[C@H]1C2 [Example 16]
Emax (Trp mass spectrometry assay): ≥ 150%

Cn1ccc(NC(=O)N2c3nc(-c4cccc(Cl)c4)ccc3N3CC[C@H]2C3)n1 [Example 109]
Tryp AVG EC1.5 (μM) [1]: B (EC1.5 1-25 μM) | Emax (Trp mass spectrometry assay): ≥ 150%

O=C(Nc1cncc(F)c1)N1c2nc(-c3cccc(C(F)(F)F)c3)ccc2N2CCC1CC2 [Example 492]
Tryp AVG EC1.5 (μM) [2]: A (EC1.5<1 μM) | Emax (Trp peptide substrate): ≥ 150%

N=C(N)NCc1ncc(-c2cccc(NC(=O)N3c4nc(-c5cccc(C(F)(F)F)c5)ccc4N4CC[C@H]3C4)c2)o1 [Example 776]
Tryp AVG EC1.5 (μM) [3]: A (EC1.5<1 μM) | Emax (Trp mass spectrometry assay): ≥ 150%

O=C(NCCCc1ccccc1)N1c2nc(-c3cccc(C(F)(F)F)c3)ccc2N2CC[C@H]1C2 [Example 599]
Tryp AVG EC1.5 (μM) [2]: B (EC1.5 1-25 μM) | Emax (Trp peptide substrate): ≥ 150%

O=C(O[C@@H]1CN2C[C@H]1N(C(=O)Nc1ccccn1)c1nc(-c3cccc(C(F)(F)F)c3)ccc12)c1ccccc1 [Example 603]
Tryp AVG EC1.5 (μM) [2]: C (EC1.5>25 μM) | Emax (Trp peptide substrate): < 150%

O=C(Nc1cccnn1)N1c2nc(-c3cccnc3)ccc2N2CCC[C@H]1C2 [Example 457]
Tryp AVG EC1.5 (μM) [2]: B (EC1.5 1-25 μM)

O=C(Nc1cccc(-c2cnco2)c1)N1c2nc(-c3cncc(F)c3)ccc2N2CCC1CC2 [Example 574]
Tryp AVG EC1.5 (μM) [2]: A (EC1.5<1 μM) | Emax (Trp peptide substrate): ≥ 150%

COc1nccc(NC(=O)N2c3nc(-c4cccc(C#N)c4)ccc3N3CC[C@H]2C3)n1 [Example 183]
Tryp AVG EC1.5 (μM) [1]: B (EC1.5 1-25 μM) | Emax (Trp mass spectrometry assay): ≥ 150%

O=C(Nc1ccccn1)N1c2nc(-c3cncc(F)c3)ccc2N2CCC1CC2 [Example 570]
Tryp AVG EC1.5 (μM) [2]: B (EC1.5 1-25 μM) | Emax (Trp peptide substrate): ≥ 150%

Cn1ccc(NC(=O)N2c3nc(-c4cccc(N5CCCC5)c4)ccc3N3CC[C@H]2C3)n1 [Example 208]
Tryp AVG EC1.5 (μM) [1]: B (EC1.5 1-25 μM) | Emax (Trp mass spectrometry assay): ≥ 150%

O=C(Nc1cccc(C2CCNC2)c1)N1c2nc(-c3cccc(C(F)(F)F)c3)ccc2N2CC[C@H]1C2 (stereo partly drawn) [Example 593]
Tryp AVG EC1.5 (μM) [2]: A (EC1.5<1 μM) | Emax (Trp peptide substrate): ≥ 150%

O=C(Nc1ccccn1)N1c2nc(-c3cccc(C(F)(F)F)n3)ccc2N2CC[C@H]1C2 [Example 336]
Tryp AVG EC1.5 (μM) [2]: B (EC1.5 1-25 μM) | Emax (Trp peptide substrate): ≥ 150%

O=C(Nc1cccc(CN2CCNCC2)c1)N1c2nc(-c3cccc(C(F)(F)F)c3)ccc2N2CC[C@H]1C2 [Example 731]
Tryp AVG EC1.5 (μM) [3]: A (EC1.5<1 μM) | Emax (Trp mass spectrometry assay): ≥ 150%

O=C(Nc1ccccn1)N1c2nc(-c3cccc(C(F)(F)F)c3)ccc2N2CC(O)C1C2 (stereo not drawn) [Example 85]
Emax (Trp mass spectrometry assay): ≥ 150%

Cc1cc(NC(=O)N2c3nc(-c4cccc(C(F)(F)F)c4)ccc3N3CC[C@H]2C3)ccn1 [Example 61]
Emax (Trp mass spectrometry assay): ≥ 150%

O=C(Nc1ccc(F)cn1)N1c2nc(-c3cccc(N4CC[C@@H](F)C4)c3)ccc2N2CC[C@H]1C2 [Example 269]
Tryp AVG EC1.5 (μM) [2]: B (EC1.5 1-25 μM) | Emax (Trp peptide substrate): ≥ 150%

O=C(Nc1nncs1)N1c2nc(-c3cccc(C(F)(F)F)c3)ccc2N2CC[C@H]1C2 [Example 646]
Tryp AVG EC1.5 (μM) [3]: A (EC1.5<1 μM) | Emax (Trp mass spectrometry assay): ≥ 150%

O=C1OC2(c3ccc(O)cc3Oc3cc(O)ccc32)c2ccc(NC(=S)NCc3cn(-c4cccc(NC(=O)N5c6nc(-c7cccc(C(F)(F)F)c7)ccc6N6CC[C@H]5C6)c4)nn3)cc21 [Example 608]
Tryp AVG EC1.5 (μM) [2]: C (EC1.5>25 μM) | Emax (Trp peptide substrate): < 150%

O=C(Nc1ccc(F)cn1)N1c2nc(-c3ccnc(N4CCC(F)(F)C4)c3)ccc2N2CC[C@H]1C2 [Example 425]
Tryp AVG EC1.5 (μM) [2]: A (EC1.5<1 μM) | Emax (Trp peptide substrate): ≥ 150%

O=C(NCCN1CCOCC1)N1c2nc(-c3cccc(C(F)(F)F)c3)ccc2N2CC[C@H]1C2 [Example 616]
Tryp AVG EC1.5 (μM) [2]: B (EC1.5 1-25 μM) | Emax (Trp peptide substrate): ≥ 150%

COc1cncc(NC(=O)N2c3nc(N4CCCC(C(F)(F)F)C4)ccc3N3CCC[C@@H]2C3)c1 (stereo partly drawn) [Example 309]
Tryp AVG EC1.5 (μM) [2]: B (EC1.5 1-25 μM) | Emax (Trp peptide substrate): ≥ 150%

O=C(Nc1cncc(F)c1)N1c2nc(-c3ccnc(N4CC[C@H](F)C4)c3)ccc2N2CC[C@H]1C2 [Example 475]
Tryp AVG EC1.5 (μM) [2]: A (EC1.5<1 μM) | Emax (Trp peptide substrate): ≥ 150%

O=C(Nc1ccccn1)N1c2nc(-c3ccc(F)c(Cl)c3)ccc2N2CC[C@H]1C2 [Example 329]
Tryp AVG EC1.5 (μM) [2]: A (EC1.5<1 μM) | Emax (Trp peptide substrate): ≥ 150%

Cc1nc(NC(=O)N2c3nc(-c4cccc(Cl)c4)ccc3N3C[C@@H](O)[C@H]2C3)sc1C [Example 688]
Tryp AVG EC1.5 (μM) [3]: B (EC1.5 1-25 μM) | Emax (Trp mass spectrometry assay): ≥ 150%

O=C(Nc1cccnc1)N1c2nc(-c3cncc(F)c3)ccc2N2CCC1CC2 [Example 572]
Tryp AVG EC1.5 (μM) [2]: B (EC1.5 1-25 μM) | Emax (Trp peptide substrate): ≥ 150%

O=C(Nc1cnccn1)N1c2nc(-c3cccc(C(F)(F)F)c3)ccc2N2CC[C@H]1C2 [Example 10]
Emax (Trp mass spectrometry assay): ≥ 150%

O=C(Nc1ccc(F)cn1)N1c2nc(N3CCCC(C(F)(F)F)C3)ccc2N2CCC[C@@H]1C2 (stereo partly drawn) [Example 362]
Tryp AVG EC1.5 (μM) [2]: C (EC1.5>25 μM) | Emax (Trp peptide substrate): ≥ 150%

O=C(CCCCCNC(=O)c1ccc(-c2c3ccc(=O)cc-3oc3cc(O)ccc23)c(C(=O)O)c1)NCc1ccc(NC(=O)N2c3nc(-c4cccc(C(F)(F)F)c4)ccc3N3CC[C@H]2C3)cc1 [Example 547]
Tryp AVG EC1.5 (μM) [2]: C (EC1.5>25 μM) | Emax (Trp peptide substrate): < 150%

Cc1nccn1CCCNC(=O)N1c2nc(-c3cccc(C(F)(F)F)c3)ccc2N2CC[C@H]1C2 [Example 632]
Tryp AVG EC1.5 (μM) [3]: C (EC1.5>25 μM) | Emax (Trp mass spectrometry assay): ≥ 150%

O=C(Nc1cccnc1)N1c2nc(-c3cncc(C(F)(F)F)c3)ccc2N2CCC[C@H]1C2 [Example 392]
Tryp AVG EC1.5 (μM) [2]: A (EC1.5<1 μM) | Emax (Trp peptide substrate): ≥ 150%

O=C(Nc1cnccn1)N1c2nc(-c3cncc(F)c3)ccc2N2CCC[C@H]1C2 [Example 432]
Tryp AVG EC1.5 (μM) [2]: B (EC1.5 1-25 μM) | Emax (Trp peptide substrate): ≥ 150%

Cc1nc(NC(=O)N2c3nc(-c4cccc(N(C)C)c4)ccc3N3CCC[C@@H]2C3)sc1C [Example 252]
Tryp AVG EC1.5 (μM) [2]: C (EC1.5>25 μM) | Emax (Trp peptide substrate): ≥ 150%

O=C(Nc1cccc(-c2cnco2)c1)N1c2nc(N3CCCC(C(F)(F)F)C3)ccc2N2CCC[C@@H]1C2 (stereo partly drawn) [Example 299]
Tryp AVG EC1.5 (μM) [2]: A (EC1.5<1 μM) | Emax (Trp peptide substrate): ≥ 150%

CC(C)(C)OC(=O)NCCNC(=N)c1ccc(NC(=O)N2c3nc(-c4cccc(C(F)(F)F)c4)ccc3N3CCC[C@H]2C3)cc1 [Example 788]
Tryp AVG EC1.5 (μM) [3]: A (EC1.5<1 μM) | Emax (Trp mass spectrometry assay): ≥ 150%
